Test results from US20250064875A1, “PHARMACEUTICAL COMPOSITION FOR PREVENTING OR TREATING MUSCLE DISEASES” (KOSA BIO INC., priority 2021, published 2025).

Columns and labels:
[1] = test system: myostatin; assay: Inhibition of muscle protein expression (qPCR): myostatin; assay type: cell-based; conditions: cells treated with FL, FV or FI 2.5-20 μg/mL
From the text: (§1) The ability of the elderberry extracts and monosaccharide-BCAA conjugate compounds prepared above to inhibit the expression of muscle proteins was confirmed using the qPCR method. Specifically, muscle RING-finger protein-1 (MuRF-1) and atrogin-1, which are both markers of muscle atrophy, and myostatin, which a negative regulator of skeletal muscle mass, were used as target muscle proteins.
(§2) Using the cells treated with the hot water extract, 50% ethanol extract, or 100% ethanol extract of elderberry described in Experimental Example 1-2, qPCR was performed as described above.
(§3) Using the cells treated with FL, FV, or FI as described in Experimental Example 1-3, qPCR was performed as previously outlined.

[2] = test system: MuRF-1; assay: Inhibition of muscle protein expression (qPCR): MuRF-1; assay type: cell-based; conditions: cells treated with FL, FV or FI 2.5-20 μg/mL
From the text: as §1, §2, §3

[3] = test system: TNFα; assay: Inhibition of TNFα expression (qPCR) in dexamethasone-treated myotubes; assay type: cell-based; conditions: cells treated with FL, FV or FI 2.5-20 μg/mL, FIG. 8
Protocol: The cells treated with elderberry extracts as in Experimental Example 1-2 were further treated with trypsin to collect only the cells. After centrifugation of the collected cells at 3,000 rpm for 5 minutes, the supernatant was removed and total RNA was extracted by sequentially treating with RiboEx™ and Hybrid-R™ (GeneAll, Korea). The concentration of the extracted RNA was measured using a Nanodrop, and this RNA was used as a template to synthesize cDNA. The cDNA was synthesized using a mixture of RNA, oligo-(dT) primers, and 2×HyperScript™ RT Master Mix (GeneAll, Korea). Subsequently, real-time PCR (qPCR) was performed using the synthesized cDNA as a template and Power SYBR™ Green PCR Master Mix under standard conditions to confirm the expression of TNFα.
Cells treated with FL, FV, or FI as in Experimental Example 1-3 were trypsinized to collect only the cells, and the level of TNFα expression was examined using the same conditions and methods as described in Experimental Example 2-1.

[4] = test system: atrogin-1; assay: Inhibition of muscle protein expression (qPCR): atrogin-1; assay type: cell-based; conditions: cells treated with FL, FV or FI 2.5-20 μg/mL
From the text: as §1, §2, §3

[5] = test system: C2C12 myoblast cells differentiated to myotubes; assay: Inhibition of myocyte apoptosis: MTT cell viability in dexamethasone-treated myotubes; assay type: cell-based; conditions: 10 μM dexamethasone, FL, FV, FI 2.5-20 μg/mL or amino acid controls, 24 hours, FIGS. 4-6
Protocol: Firstly, C2C12 myoblast cells (from ATCC, USA) were cultured in DMEM supplemented with 10% fetal bovine serum (FBS) and 1% antibiotic-antimycotic at 37° C. under a 5% CO2 atmosphere. Thereafter, the medium was replaced with one containing 2% horse serum (HS) for incubation of additional 72 hours. […] Post-treatment, the cells were observed again under a microscope. The results of the differentiation to myotubes are presented in FIG. 1, and the observations post-dexamethasone treatment in FIG. 2.
After 24 hours, the culture medium was removed, and MTT reagent (5 mg/mL) was added to each well and incubated for 4 hours. Subsequently, DMSO was added to dissolve any precipitates, and the absorbance was read at 570 nm.
Apart from FL, which was found in elderberry extracts, fructose-valine (FV) and fructose-isoleucine (FI) conjugates in which the branched-chain amino acid valine or isoleucine is conjugated to the monosaccharide fructose were also tested for inhibition against myocyte apoptosis. Experiments were conducted in the same manner and conditions as in Experiment Example 1-2, except that FL, FV, or FI was used at concentrations of 2.5, 5, 10, or 20 μg/mL instead of elderberry extracts. As controls, amino acids such as leucine, valine, isoleucine, tryptophan, arginine, tyrosine, glycine, lysine, methionine, phenylalanine, or threonine were used. The cell viability calculated from the treatments with FL, FV, or FI are presented in FIG. 4, and results from amino acid treatments in FIGS. 5 and 6.

[6] = test system: sarcopenia animal model; assay: Sarcopenia animal model, body composition by DXA; assay type: in vivo, mice; conditions: for lean body weight / BMC / BMD(g/cm^2) / fat / fat(%) / tissue area(cm^2): DXA; for lean body weight: C57BL/6 mice, dexamethasone 20 mg/kg i.p. daily, extract 300 mg/kg or FL 0.5 mg/kg oral daily; for BMC / BMD(g/cm^2) / fat / fat(%) / tissue area(cm^2): same model and doses
Protocol: Specifically, male C57BL/6 mice (7 weeks old, Samtako Bio Korea, Korea) were acclimatized, and their body weight (g), lean body weight (g), fat mass (g), and body fat percentage (%) were measured using dual-energy X-ray absorptiometry (DXA). […] A control group consisted of untreated 5 mice (normal mice) at day 0 of treatment. On days 7 and 14 of treatment, the mice were scanned using DXA to measure body weight, lean body weight, fat mass, and body fat percentage; the results are presented in FIG. 14 and Tables 2 and 3.

[7] = test system: sarcopenia animal model; assay: Sarcopenia animal model, excised tissue weights; assay type: in vivo, mice; conditions: day 14; for Thymus: dexamethasone 20 mg/kg i.p., extract 300 mg/kg or FL 0.5 mg/kg oral daily
Protocol: Specifically, male C57BL/6 mice (7 weeks old, Samtako Bio Korea, Korea) were acclimatized, and their body weight (g), lean body weight (g), fat mass (g), and body fat percentage (%) were measured using dual-energy X-ray absorptiometry (DXA). […] A control group consisted of untreated 5 mice (normal mice) at day 0 of treatment.

[8] = test system: TM3 cell line; assay: Promotion of testosterone secretion (ELISA) in H2O2-treated Leydig cells; assay type: cell-based; conditions: 500 μM H2O2 6 hours; extract 12.5-100 μg/mL or FL 1.25-10 μg/mL; ELISA of medium; FIG. 9
Protocol: First, the TM3 cell line (from ATCC, USA), which is Leydig cells, were cultured using a standard method. The cultured cells were treated with 500 μM of hydrogen peroxide (H2O2) for 6 hours, followed by the addition of either 12.5, 25, 50, or 100 μg/mL of the hot water extract of elderberry or 1.25, 2.5, 5, or 10 μg/mL of FL (fructose-leucine). Subsequently, ELISA was performed using the cultured cell medium to determine the levels of testosterone, and the results are presented in FIG. 9.

[9] = result in words, sarcopenia mice, 14 days
[10] = excised tissue weight, same model and doses

SMILES | mRNA expression level of myostatin increased by dexamethasone [1] | mRNA expression level of MuRF-1 increased by dexamethasone [2] | level of TNFα expression increased by dexamethasone [3] | mRNA expression level of atrogin-1 increased by dexamethasone [4] | cell viability reduced by dexamethasone [5] | lean body weight ([6]; Day 0) [g] | BMC ([6]; Day 0) [g] | BMD(g/cm^2) ([6]; Day 0) | fat ([6]; Day 0) [g] | fat(%) ([6]; Day 0) | tissue area(cm^2) ([6]; Day 0) | lean body weight ([6]; Day 7) [g] | BMC ([6]; Day 7) [g] | BMD(g/cm^2) ([6]; Day 7) | fat ([6]; Day 7) [g] | fat(%) ([6]; Day 7) | tissue area(cm^2) ([6]; Day 7) | lean body weight ([6]; Day 14) [g] | BMC ([6]; Day 14) [g] | BMD(g/cm^2) ([6]; Day 14) | further results
CC(C)[C@H](NCC1(O)OC[C@@H](O)[C@H](O)C1O)C(=O)O (stereo partly drawn) [FV, fructose-valine] | significantly decreased | significantly decreased | significantly suppressed | significantly decreased | significantly restored |  |  |  |  |  |  |  |  |  |  |  |  |  |  |  | 
CC(C)CC(NCC1(O)OCC(O)C(O)C1O)C(=O)O (stereo not drawn) [FL, fructose-leucine] | significantly decreased | significantly decreased | significantly suppressed | significantly decreased | significantly restored | 18.31 ± 1.43 | 0.19 ± 0.04 | 0.053 ± 0.004 | 1.27 ± 0.25 | 6.49 ± 1.03 | 13.13 ± 1.08 | 18.05 ± 0.44 | 0.20 ± 0.03 | 0.059 ± 0.009 | 1.43 ± 0.53 | 7.31 ± 2.47 | 13.83 ± 0.53 | 18.34 ± 0.56 | 0.19 ± 0.04 | 0.056 ± 0.006 | fat ([6]; Day 14): 1.29 ± 0.19 g; fat(%) ([6]; Day 14): 6.57 ± 0.76%; tissue area(cm^2) ([6]; Day 14): 13.66 ± 0.92 cm^2; body weight of the mice [6, 9]: restored; lean body weight of the mice [6, 9]: restored; tissue areas of the mice [6, 9]: restored; Thymus ([7]; excised tissue weight): 0.009 ± 0.002 g; Liver [7, 10]: 1.375 ± 0.117 g; Muscle [7, 10]: 0.683 ± 0.18 g; Spleen [7, 10]: 0.028 ± 0.009 g; weights of the various tissues ([7]; result in words): restored to levels similar to those of the normal control group; concentration of testosterone suppressed by hydrogen peroxide [8]: significantly restored
CC[C@H](C)[C@H](NCC1(O)OC[C@@H](O)[C@@H](O)[C@@H]1O)C(=O)O (stereo partly drawn) [FI, fructose-isoleucine] | significantly decreased | significantly decreased | significantly suppressed | significantly decreased | significantly restored |  |  |  |  |  |  |  |  |  |  |  |  |  |  |  | 
C[C@@H]1C[C@H]2[C@@H]3CCC4=CC(=O)C=C[C@]4(C)[C@@]3(F)[C@@H](O)C[C@]2(C)[C@@]1(O)C(=O)CO [Dexamethasone, dexamethasone, reference compound] |  |  |  |  |  | 18.93 ± 1.42 | 0.23 ± 0.13 | 0.057 ± 0.012 | 1.44 ± 0.16 | 7.1 ± 1.07 | 13.32 ± 2.03 | 17.53 ± 1.36 | 0.16 ± 0.02 | 0.052 ± 0.004 | 1.13 ± 0.34 | 5.99 ± 1.53 | 12.41 ± 1.31 | 17.47 ± 0.29 | 0.16 ± 0.01 | 0.057 ± 0.004 | fat ([6]; Day 14): 1.56 ± 0.34 g; fat(%) ([6]; Day 14): 8.17 ± 1.58%; tissue area(cm^2) ([6]; Day 14): 13.97 ± 0.51 cm^2; Thymus ([7]; excised tissue weight): 0.009 ± 0.004 g; Muscle [7, 10]: 0.501 ± 0.064 g; Spleen [7, 10]: 0.026 ± 0.01 g
